Test system: CFBE41o- DeltaF508-CFTR YFP halide quenching kinetics
Test: PubChem AID 651992
Conditions: at 40 µM (top of the series)

**Q.** Which YFP fluorescence ratio, lower = correction does the source give for `COc1ccc(/C=C/C=C2C(=O)NC(=O)NC2=O)cc1` here?
**A.** 1

From PubChem BioAssay AID651992 (The Scripps Research Institute Molecular Screening Center, 2013)
